Test results reported in patent US9452154B2, “Methods for treating HCV” (Gilead Sciences, Inc., priority 2010, dated 2016).
Like-named read-outs stand apart in the source and are kept apart here.

Tests used:
[1] = system: HCV genotype 1a replicon; test: Biological Example 3: antiviral combination studies with Compound 4 (MacSynergy II); details: in combination with Compound 4
[2] = system: HCV genotype 1a replicon; test: Biological Example 3: HCV genotype 1a replicon assay, EC50; type: cell-based; details: Hepatitis C virus, 72 h, 3 days, read-out: EC50
Method: The HCV genotype 1a replicon cell line used in this study was described previously. The cells were grown in cell culture medium containing Dulbecco's Modified Eagle Medium (DMEM) with GlutaMAX (Gibco, Carlsbad, Calif., Cat#10569-044), supplemented with 10% FBS (HyClone, Logan, Utah, Cat#SH30071.03), 100 Units/mL Penicillin, 100 μg/mL Streptomycin (Gibco, Carlsbad, Calif., Cat#15140-122), and 0.1 mM non-essential amino acids (Gibco, Carlsbad, Calif., Cat#11140-050). Replicon cells were maintained in 0.5 mg/mL Geneticin (Invitrogen, Carlsbad, Calif., Cat#10131-035) to prevent the loss of HCV replicon. The cells were passaged every 3-4 days before reaching confluency.
(§1) [formula] where XC is the fluorescence signal from the compound-treated well; MB is the average fluorescence signal from puromycin-treated wells; MD is the average fluorescence signal from DMSO-treated wells. The anti-HCV replication activity was determined by the luminescence signal generated from the reporter renilla luciferase of the HCV replicon. The percent inhibition on HCV replicon was calculated using equation 1, where XC is the luminescence signal from compound-treated well; MB is average luminescence signal from the ITMN-191-treated wells; MD is the average luminescence signal from DMSO-treated wells.
(§2) Both CC50 and EC50 values were obtained using Pipeline Pilot 5.0 software package (Accelrys, San Diego, Calif.) by nonlinear regression fitting of experimental data to equation 2: […]

[3] = system: HCV 1b replicon system; test: Biological Example 5: antiviral combination studies with Compound 6 (MacSynergy II); type: cell-based; details: in combination with Compound 6
[4] = Biological Example 3: cytotoxicity (calcein AM), CC50; type: cell-based; details: human, Huh-7 cells carrying a HCV genotype 1a replicon; HCV genotype 1a replicon cells; calcein AM
Method: The HCV replicon assay was a multiplex assay which can assess both cytotoxicity and anti-replicon activity from the same well. The CC50 assay was performed first.
The cytotoxicity effect was determined by calcein AM conversion to fluorescent product. The percent cytotoxicity was calculated by equation 1:
as §1, §2

[5] = system: Huh-7 cells carrying a HCV genotype 1a replicon; test: Biological Example 3: cytotoxicity in combination studies (MacSynergy II); details: in combination with Compound 4
[6] = system: GT-1b Huh-lunet cells; test: Biological Example 4: antiviral combination studies with Compound 5 (MacSynergy II); type: cell-based, HCV; details: in combination with Compound 5, 1b replicon cells
[7] = system: GT1b and GT1a mutant replicons; test: Biological Example 8: summary of cross resistance of mutant replicons; type: cell-based, HCV; details: triple class mutants that confer resistance to PI, NS5A and Compound 1
Method: (§3) GT1b and GT1a replicons carrying Renilla Luciferase reporter were used to generate the mutant replicons. The mutations were introduced into the replicon construct by site-directed mutagenesis and confirmed by sequencing. Mutant replicon RNAs were generated from DNA by in vitro transcription and transfected into Huh-7 Lunet or C1 cells
(§4) Compounds were serially diluted 1:3 in 100% DMSO (Sigma). These serial dilutions were added to the cells at a 1:200 dilution to achieve a final concentration of 0.5% DMSO in a total volume of 200 μL. […] EC50 values were calculated using Prism.
(§5) For comparison, a fold change of 0-3 is considered “sensitive”, a fold change of 3-10 is considered “low”, a fold change of 10-50 is considered “medium” and a fold change of greater than […] is considered “high”.

[8] = system: NS3 GT1a mutant replicons; type: cell-based, HCV
Method: as §3, §4, §5

[9] = system: NS3 GT1b mutant replicons; type: cell-based, HCV
Method: as §3, §4, §5

For `COc1ccc2c(O[C@@H]3C[C@H]4C(=O)N[C@]5(P(=O)(O)Cc6c(F)cccc6F)C[C@H]5CCCCCCC[C@H](NC(=O)OC5CCCC5)C(=O)N4C3)cc(-c3csc(NC(C)C)n3)nc2c1Cl` [Compound 2, (2R,6S,13aR,14aS,16aS)-2-(8-chloro-2-(2-(isopropylamino)thiazol-4-yl)-7-methoxyquinolin-4-yloxy)-6-(cyclopentyloxycarbonylamino)-5,16-dioxooctadecahydrocyclopropa[e]pyrrolo[1,2-a][1,4]diazacyclopentadecin-14a-yl(2,6-difluorobenzyl)phosphinic acid], the “Antagonism Volume” value [1] was −2 ± 3 nM^2%, the Interaction [1] was “Additivity (Additivity: ≦25 and >−25 nM^2%)” and the “Synergy Volume” value [1] was 22 ± 14 nM^2%. The EC50 [2] was 0.496 ± 0.135 µM, the Interaction [3] was “Moderate Synergy” and the CC50 at 3 days [4] was > 22.2 µM. The “Antagonism Volume (cytotoxicity)” value [5] was 0 ± 0 nM^2%, the “Interaction (cytotoxicity)” value [5] was “Additivity (Additivity: ≦25 and >−25 nM^2%)” and the “Synergy Volume (cytotoxicity)” value [5] was 17 ± 14 nM^2%. The Interaction [6] was “Additive” and the “Synergy Volume” value [6] was 22 ± 12 nM^2.

In the case of `CC1=CC[C@H](C(=O)N(c2cc(C#CC(C)(C)C)sc2C(=O)O)[C@H]2CC[C@](O)(CO[C@H]3CCOC3)CC2)CC1` [Compound 5, 5-(3,3-dimethylbut-1-yn-1-yl)-3-[(cis-4-hydroxy-4-{[(3S)-tetrahydrofuran-3-yloxy]methyl}cyclohexyl){[(1R)-4-methylcyclohex-3-en-1-yl]carbonyl}amino]thiophene-2-carboxylic acid], the susceptibility of mutants [7] is reported as “susceptible”, the “fold change in EC50 vs wild-type GT1a” value ([8]; mutant A156T) is reported as 0.4 fold and the “fold change in EC50 vs wild-type GT1a” value ([8]; mutant D168A) is reported as 1.1 fold. The “fold change in EC50 vs wild-type GT1a” value ([8]; mutant D168E) was 0.7 fold, the “fold change in EC50 vs wild-type GT1a” value ([8]; mutant D168G) was 1.0 fold and the “fold change in EC50 vs wild-type GT1a” value ([8]; mutant D168H) was 1.1 fold. The “fold change in EC50 vs wild-type GT1a” value ([8]; mutant D168N) was 1.3 fold, the “fold change in EC50 vs wild-type GT1a” value ([8]; mutant D168V) was 1.1 fold and the “fold change in EC50 vs wild-type GT1a” value ([8]; mutant D168Y) was 0.7 fold. For the same compound, the “fold change in EC50 vs wild-type GT1a” value ([8]; mutant R155I) was 0.7 fold, the “fold change in EC50 vs wild-type GT1a” value ([8]; mutant R155K) was 0.8 fold and the “fold change in EC50 vs wild-type GT1a” value ([8]; mutant R155K + L31M) was 0.4 fold. For the same compound, the “fold change in EC50 vs wild-type GT1a” value ([8]; mutant R155K + L31M + Y448H) was 0.3 fold, the “fold change in EC50 vs wild-type GT1a” value ([8]; mutant R155K + M28T) was 0.8 fold and the “fold change in EC50 vs wild-type GT1a” value ([8]; mutant R155K + M28T + Y448H) was 0.3 fold. The “fold change in EC50 vs wild-type GT1a” value ([8]; mutant R155K + Q30H + Y448H) was 0.5 fold, the “fold change in EC50 vs wild-type GT1a” value ([8]; mutant R155K + Q30R) was 1.5 fold and the “fold change in EC50 vs wild-type GT1a” value ([8]; mutant R155K + Y93H) was 0.6 fold. The “fold change in EC50 vs wild-type GT1a” value ([8]; mutant R155K + Y488H (first line, r20)) was 1.0 fold, the “fold change in EC50 vs wild-type GT1a” value ([8]; mutant R155K + Y488H (second line, r26)) was 0.6 fold and the “fold change in EC50 vs wild-type GT1a” value ([8]; mutant R155M) was 0.7 fold. For the same compound, the “fold change in EC50 vs wild-type GT1a” value ([8]; mutant R155S) was 0.5 fold, the “fold change in EC50 vs wild-type GT1a” value ([8]; mutant R155T) was 0.6 fold and the “fold change in EC50 vs wild-type GT1a” value ([8]; mutant R155W) was 1.0 fold. The “fold change in EC50 vs wild-type GT1a” value ([8]; mutant R155k + Q30H) was 0.6 fold, the “fold change in EC50 vs wild-type GT1b” value ([9]; mutant A156D) was 0.8 fold and the “fold change in EC50 vs wild-type GT1b” value ([9]; mutant A156G) was 0.8 fold. The “fold change in EC50 vs wild-type GT1b” value ([9]; mutant A156T) was 0.7 fold, the “fold change in EC50 vs wild-type GT1b” value ([9]; mutant A156V) was 0.8 fold and the “fold change in EC50 vs wild-type GT1b” value ([9]; mutant D168A) was 0.9 fold. For the same compound, the “fold change in EC50 vs wild-type GT1b” value ([9]; mutant D168E) was 0.9 fold, the “fold change in EC50 vs wild-type GT1b” value ([9]; mutant D168E + L31V + Y448H) was 0.8 fold and the “fold change in EC50 vs wild-type GT1b” value ([9]; mutant D168E + Y93H + Y448H) was 0.5 fold. The “fold change in EC50 vs wild-type GT1b” value ([9]; mutant D168E + Y448H) was 0.4 fold, the “fold change in EC50 vs wild-type GT1b” value ([9]; mutant D168G) was 0.8 fold and the “fold change in EC50 vs wild-type GT1b” value ([9]; mutant D168H) was 1.0 fold. For the same compound, the “fold change in EC50 vs wild-type GT1b” value ([9]; mutant D168H + C445F) was 0.4 fold, the “fold change in EC50 vs wild-type GT1b” value ([9]; mutant D168L + C445F) was 0.2 fold and the “fold change in EC50 vs wild-type GT1b” value ([9]; mutant D168N) was 1.1 fold. The “fold change in EC50 vs wild-type GT1b” value ([9]; mutant D168T) was 1.0 fold, the “fold change in EC50 vs wild-type GT1b” value ([9]; mutant D168V) was 1.3 fold and the “fold change in EC50 vs wild-type GT1b” value ([9]; mutant D168V + C445F) was 0.3 fold. The “fold change in EC50 vs wild-type GT1b” value ([9]; mutant D168V + L31V + Y448H) was 0.6 fold, the “fold change in EC50 vs wild-type GT1b” value ([9]; mutant D168V + Y93H + Y448H) was 0.6 fold and the “fold change in EC50 vs wild-type GT1b” value ([9]; mutant D168V + Y448H) was 0.5 fold. For the same compound, the “fold change in EC50 vs wild-type GT1b” value ([9]; mutant D168Y) was 1.1 fold, the “fold change in EC50 vs wild-type GT1b” value ([9]; mutant L31V + D168E) was 1.3 fold and the “fold change in EC50 vs wild-type GT1b” value ([9]; mutant L31V + D168V) was 1.1 fold. For the same compound, the “fold change in EC50 vs wild-type GT1b” value ([9]; mutant R155C) was 0.6 fold, the “fold change in EC50 vs wild-type GT1b” value ([9]; mutant R155G) was 0.8 fold and the “fold change in EC50 vs wild-type GT1b” value ([9]; mutant R155K) was 1.2 fold. The “fold change in EC50 vs wild-type GT1b” value ([9]; mutant R155L) was 0.8 fold, the “fold change in EC50 vs wild-type GT1b” value ([9]; mutant R155Q) was 0.6 fold and the “fold change in EC50 vs wild-type GT1b” value ([9]; mutant R155W) was 0.5 fold. The “fold change in EC50 vs wild-type GT1b” value ([9]; mutant Y93H + D168E) was 1.0 fold, the “fold change in EC50 vs wild-type GT1b” value ([9]; mutant Y93H + D168V) was 0.5 fold and the “Antagonism Volume” value [1] was −1 ± 3 nM^2%. For the same compound, the “Synergy Volume” value [1] was 26 ± 28 nM^2%, the EC50 [2] was 0.015 ± 0.0024 µM and the CC50 at 3 days [4] was > 44.4 µM. The “Antagonism Volume (cytotoxicity)” value [5] was −10 ± 7 nM^2%, the “Interaction (cytotoxicity)” value [5] was “Additivity (Additivity: ≦25 and >−25 nM^2%)” and the “Synergy Volume (cytotoxicity)” value [5] was 15 ± 8 nM^2%.
